For this assay, the system named is cultured mouse cortical neurons. Put plainly: Digital holographic imaging (DHI) of glutamate-mediated morphological changes (phase/OPL signal) in neurons. Format: cell-based. The text has this:
FIG. 3 presents an example of application of the present invention to image living cells in culture enclosed in a perfusion chamber 30 filled with a physiological solution 37. […] A CCD camera 35 records the hologram. The hologram is produced by the interference with a reference wave 36. A numerical procedure is then applied to reconstruct the hologram. The obtained phase-contrast image can be presented in 3D perspective, as presented for example in FIG. 4d.
From the quantitative phase-contrast image, quantitative data about the cell morphology can be obtained. The refractive index, at the wavelength of 633 nm, of the perfused solution nm=1.3336±0.0002, was measured with an Abbe refractometer. By assuming, in first approximation, a constant and homogeneous cellular refractive index ns=1.365, one can estimate that an phase of 10 degree corresponds to a cellular thickness d=0.6 μm. Using this relation between phase and thickness, phase measurements extracted from specific pixels of the quantitative phase-contrast image presented FIG. 3c, yields a thickness of 1-3 μm for the neuronal processes and of approximately 8 μm for the cell body. Even with the assumption of a homogeneous distribution of intracellular refractive index (which can be discussed given a certain degree of heterogeneity of its constituents), these estimations of cell morphology give realistic values of typical cell dimensions as described in the literature for the mouse cortical neurons presented here. Using the same assumption for refractive index of the cell, and based on a phase measurement accuracy of 0.7 degree, that is dictated by experimental opto-mechanical noise, we obtain an axial (or vertical) resolution of 40 nanometers.
As an example of application of the present invention, the present invention has been applied to study the effects of an excitatory neurotransmitter (glutamate) on the morphology of cultured mouse cortical neurons. The influence of glutamate on neuron morphology has been already described as resulting from excitotoxicity, for high concentrations (20-500 μM) and long exposures of several minutes. […] It has also been established that this effect occurs in response to the activation of N-methyl-D-aspartate (NMDA) receptors. FIG. 4a presents the temporal evolution of the phase signal measured, in real-time by DHI, in the domain delimited by a black rectangle in FIG. 4b, which presents a typical example of a quantitative phase contrast image of a living mouse cortical neuron immersed in a physiological solution. […] These pulses of pharmacological agents are indicated by black triangles in FIG. 4a. […] The concentrations of GLUT, are respectively 15 μM, 10 μM, 15 μM and 20 μM. At instants indicated by black triangles 45 and 46, 400 μM of kynurenate (KYN), a broad spectrum ionotropic glutamate receptor antagonist, has been added to GLUT. […] These OPL increases could be reproduced several times over periods of more than three hours. […] A concentration-response curve (FIG. 4c) has been established on the basis of 5 different experiments. As response amplitudes vary from cell to cell, results were normalized with respect to the maximal response which occurred at a concentration of ˜15 μM. […] Without glycine cells started to respond at glutamate concentrations higher than 15 μM and for only ˜25% of cells (vs. ˜80% in the presence of glycine). As glycine is an NMDA receptor co-agonist, this behavior further emphasizes the role these receptors in the glutamate-evoked responses. The maximum amplitude of a typical phase increase is ˜10 degree representing ˜5% of the initial cellular phase. If we assume once again a constant cellular refractive index (ns=1.365), this corresponds to an increase in the vertical (z) axis of ˜0.6 μm.

For `O=C(O)c1cc(=O)c2ccccc2[nH]1` [KYN, kynurenate], the “effect on glutamate-evoked phase signal” value (400 μM added to GLUT) is recorded as “No increase of the phase signal occurs”.
For `C[C@]12N[C@H](Cc3ccccc31)c1ccccc12` [MK-801], the “effect on glutamate-evoked phase signal” value (5 μM added to GLUT) was “inhibited”.
One may read the Hill coefficient as the slope factor of the fitted curve. On to `N[C@@H](CCC(=O)O)C(=O)O` [glutamate], for which the “maximum amplitude of a typical phase increase” value is roughly 10 degree and the “maximum phase increase as share of the initial cellular phase” value is recorded as roughly 5%. Further, under “20 seconds pulses, glycine (3 μM) in perfusion solutions, 5 different experiments, normalized to maximal response, read-out: EC50 of glutamate-evoked phase response (Hill equation fit of concentration-response curve)”, the EC50 was roughly 7.5 µM. Besides, the “phase signal on application alone” value (GLUT 15, 10, 15 and 20 μM pulses of 20 seconds) is listed as “Marked phase increases”. The “increase in the vertical (z) axis” value (assuming constant cellular refractive index ns=1.365) is on record as roughly 0.6 μm. The Hill coefficient (concentration-response curve, glycine (3 μM) present) was determined as 3.75±0.4. Under “glycine (3 μM) present”, the “concentration at which the maximal response occurred” value is roughly 15 µM. For the same molecule, under “in the presence of glycine”, the cells responding was roughly 80%. Where the note is “without glycine”, the cells responding is given as roughly 25% and the “glutamate concentration at which cells started to respond” value was “higher than 15 μM”.

The values are drawn from patent US6943924B2, “Apparatus and method for digital holographic imaging” (Ecole Polytechnique Federale de Lausanne (EPFL), priority 2001, dated 2005).
